Source: patent publication US9944666B2, “Compounds that are S1P modulating agents and/or ATX modulating agents” (BIOGEN MA INC., priority 2012, dated 2018)

The compounds below were run against T1, Human ATX protein (Homo sapiens, UniProt Q13822) (assay: ATX biochemical FRET assay with FS-3 substrate). Conditions: FS-3 2 μM, ATX 1.0 μg/mL, room temperature 2 hours, fluorescence 485/538 nm.
T1 construct: made in house
Method in brief: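 Purified human ATX (1.0 μg/mL final) preincubated with compound 30 min at room temperature in Tris pH 7.4 buffer with NaCl, KCl, CaCl2, MgCl2 and 1 mg/mL fatty acid-free BSA. FS-3 added to 2 μM final; 2 h at room temperature in the dark, fluorescence at ex 485/em 538 nm.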
Compound `CCC(c1ccc2c(C(F)F)c(O[C@H]3CC[C@@H](C)CC3)ccc2c1)N1C2CCC1CC(C(=O)O)C2` (stereo partly drawn) [Example 99, 8-(1-(5-(difluoromethyl)-6-((cis-4-methylcyclohexyl)oxy)naphthalen-2-yl)propyl)-8-azabicyclo[3.2.1]octane-3-carboxylic acid] has an IC50 of at most 100 nM. `CC[C@H]1CC[C@@H](Oc2ccc3cc(C(C)N4C5CCC4CC(C(=O)O)C5)ccc3c2Cl)CC1` (relative stereo) [Example 184, 8-(1-(5-Chloro-6-((cis-4-ethylcyclohexyl)oxy)naphthalen-2-yl)ethyl)-8-azabicyclo[3.2.1]octane-3-carboxylic acid] gave an IC50 of at most 100 nM. In the case of `O=C(O)C1CC2CC(O)CC(C1)N2Cc1ccc2c(C(F)(F)F)c(O[C@H]3CC[C@@H](C(F)(F)F)CC3)ccc2c1` (relative stereo) [Example 169, 9-(5-trifluoromethyl-6-(cis-4-trifluoromethyl-cyclohexyloxy)-naphthalen-2-ylmethyl)-7-hydroxy-9-azabicyclo[3.3.1]nonane-3-carboxylic acid], the IC50 is reported as at most 500 nM. Work on `CCC(c1ccc2c(C(F)(F)F)c(O[C@H]3CC[C@@H](C(F)(F)F)CC3)ccc2c1)N1C2CCCC1CC(C(=O)O)C2` (relative stereo) [Example 177, 9-(1-(6-((cis-4-trifluoromethylcyclohexyl)oxy)-5-(trifluoromethyl)naphthalen-2-yl)propyl)-9-azabicyclo[3.3.1]nonane-3-carboxylic acid] yielded an IC50 of at most 100 nM. `C[C@H]1CC[C@H](Nc2cc3ccc(C(=O)N4C5CCC4CC(C(=O)O)C5)cc3cn2)CC1` (stereo partly drawn) [Example 264, 8-(3-((trans-4-methylcyclohexyl)amino)isoquinoline-7-carbonyl)-8-azabicyclo[3.2.1]octane-3-carboxylic acid] showed an IC50 of at most 500 nM. `CC[C@H]1CC[C@@H](Oc2ccc3cc(CN4C5CCC4CC(C(=O)O)C5)ccc3c2C#N)CC1` (stereo partly drawn) [Example 200, 8-((5-cyano-6-((cis-4-ethylcyclohexyl)oxy)naphthalen-2-yl)methyl)-8-azabicyclo[3.2.1]octane-3-carboxylic acid] gave an IC50 of at most 500 nM. With `CCC(c1ccc2c(C#N)c(O[C@H]3CC[C@@H](CC)CC3)ccc2c1)N1C2CCC1CC(C(=O)O)C2` (stereo partly drawn) [Example 220, 8-(1-(5-cyano-6-((cis-4-ethylcyclohexyl)oxy)naphthalen-2-yl)propyl)-8-azabicyclo[3.2.1]octane-3-carboxylic acid] the IC50 was at most 100 nM. `CC[C@H]1CC[C@@H](Oc2ccc3cc([C@H](C)N4C5CCCC4CC(C(=O)O)C5)ccc3c2C(F)(F)F)CC1` (single isomer, unassigned) [Example 292] showed an IC50 of at most 100 nM. Compound `CCC(c1ccc2c(C(F)F)c(O[C@H]3CC[C@@H](C)CC3)ccc2c1)N1C2CCCC1CC(C(=O)O)C2` (relative stereo) [Example 135, 9-(1-(5-(difluoromethyl)-6-((cis-4-methylcyclohexyl)oxy)naphthalen-2-yl)propyl)-9-azabicyclo[3.3.1]nonane-3-carboxylic acid] has an IC50 of at most 100 nM. `O=C(O)C1CC2CCCC(C1)N2C(=O)c1ccc2c(Cl)c(O[C@H]3CC[C@@H](C(F)(F)F)CC3)ccc2c1` (stereo partly drawn) [Example 201, 9-(5-chloro-6-((cis-4-(trifluoromethyl)cyclohexyl)oxy)-2-naphthoyl)-9-azabicyclo[3.3.1]nonane-3-carboxylic acid] gave an IC50 of at most 250 nM. Compound `O=C(O)C1CC2CCCC(C1)N2Cc1ccc2c(C(F)(F)F)c(N[C@H]3CC[C@@H](C(F)(F)F)CC3)ccc2c1` (stereo partly drawn) [Example 230, 9-((5-(trifluoromethyl)-6-((cis-4-(trifluoromethyl)cyclohexyl)amino)naphthalen-2-yl)methyl)-9-azabicyclo[3.3.1]nonane-3-carboxylic acid] has an IC50 of at most 100 nM. `C[C@H]1CC[C@@H](Oc2ccc3cc(C(C(=O)O)N4C5CCCC4CCC5)ccc3c2C(F)(F)F)CC1` (stereo partly drawn) [Example 109, 2-(9-Azabicyclo[3.3.1]nonan-9-yl)-2-(6-((cis-4-methylcyclohexyl)oxy)-5-(trifluoromethyl)naphthalen-2-yl)acetic acid] was tested, and the IC50 was at most 250 nM. With `CCC(c1ccc2c(Cl)c(O[C@H]3CC[C@@H](C(F)(F)F)CC3)ccc2c1)N1C2CCC1CC(C(=O)O)C2` (stereo partly drawn) [Example 202, 8-(1-(5-chloro-6-((cis-4-(trifluoromethyl)cyclohexyl)oxy)naphthalen-2-yl)propyl)-8-azabicyclo[3.2.1]octane-3-carboxylic acid] the IC50 was at most 100 nM. `CC[C@H]1CC[C@@H](Oc2ccc3cc(CN4C5CCCC4CC(C(=O)O)C5)ccc3c2)CC1` (stereo partly drawn) [Example 83, 9-((6-((cis-4-ethylcyclohexyl)oxy)naphthalen-2-yl)methyl)-9-azabicyclo[3.3.]nonane-3-carboxylic acid] showed an IC50 of at most 500 nM. In the case of `CC[C@H]1CC[C@@H](Oc2ccc3cc(C(=O)N4C5CCC4CC(C(=O)O)C5)ccc3c2C(F)(F)F)CC1` (stereo partly drawn) [Example 222, 8-(6-((cis-4-ethylcyclohexyl)oxy)-5-(trifluoromethyl)-2-naphthoyl)-8-azabicyclo[3.2.1]octane-3-carboxylic acid], the IC50 is reported as at most 100 nM. `CC[C@H]1CC[C@@H](Oc2ccc3cc(CN4C5CCCC4CC(C(=O)O)C5)ccc3c2C#N)CC1` (stereo partly drawn) [Example 199, 9-((5-cyano-6-((cis-4-ethylcyclohexyl)oxy)naphthalen-2-yl)methyl)-9-azabicyclo[3.3.1]nonane-3-carboxylic acid] was tested, and the IC50 was at most 100 nM. `CCC1CCC(Oc2ccc3cc(C(CC)N4C5CCCC4CC(C(=O)O)C5)ccc3c2C(F)(F)F)CC1` [Example 297, 9-((R)-1-(6-(((1s,4S)-4-ethylcyclohexyl)oxy)-5-(trifluoromethyl)naphthalen-2-yl)propyl)-9-azabicyclo[3.3.1]nonane-3-carboxylic acid] gave an IC50 of at most 250 nM. Work on `CC(C)(C)[C@H]1CC[C@H](Nc2cc3ccc(C(=O)N4C5CCC4CC(C(=O)O)C5)cc3cn2)CC1` (stereo partly drawn) [Example 194, 8-(3-((trans-4-(tert-butyl)cyclohexyl)amino)isoquinoline-7-carbonyl)-8-azabicyclo[3.2.1]octane-3-carboxylic acid] yielded an IC50 of at most 100 nM. `C[C@H](c1ccc2c(C(F)(F)F)c(O[C@H]3CC[C@@H](C(F)(F)F)CC3)ccc2c1)N1C2CCCC1CC(C(=O)O)C2` (single isomer, unassigned) [Example 89] gave an IC50 of at most 100 nM. `C[C@H]1CC[C@@H](Oc2ccc3cc(C(=O)N4C5CCC4CC(C(=O)O)C5)ccc3c2Cl)CC1` (stereo partly drawn) [Example 203, 8-(5-chloro-6-((cis-4-methylcyclohexyl)oxy)-2-naphthoyl)-8-azabicyclo[3.2.1]octane-3-carboxylic acid] showed an IC50 of at most 250 nM. `O=C(O)C1CC2CCCC(C1)N2C(=O)c1ccc2c(C(F)(F)F)c(N[C@H]3CC[C@@H](C(F)(F)F)CC3)ccc2c1` (stereo partly drawn) [Example 245, 9-(5-(trifluoromethyl)-6-((cis-4-(trifluoromethyl)cyclohexyl)amino)-2-naphthoyl)-9-azabicyclo[3.3.1]nonane-3-carboxylic acid] gave an IC50 of at most 100 nM. `CC[C@H]1CC[C@@H](Oc2ccc3nc(NC4C5CCCC4CC(C(=O)O)C5)ccc3c2Cl)CC1` (stereo partly drawn) [Example 281, 9-((5-chloro-6-((cis-4-ethylcyclohexyl)oxy)quinolin-2-yl)amino)bicyclo[3.3.1]nonane-3-carboxylic acid] gave an IC50 of at most 100 nM. In the case of `C[C@H](c1ccc2c(Cl)c(O[C@H]3CC[C@@H](C(F)(F)F)CC3)ccc2c1)N1C2CCC1CC(C(=O)O)C2` (single isomer, unassigned) [Example 242], the IC50 is reported as at most 100 nM. Work on `O=C(O)C1CC2CN(Cc3ccc4c(C(F)(F)F)c(OC5CCC(C(F)(F)F)CC5)ccc4c3)CC2C1` (stereo not shown) [Example 154, 3-(5-trifluoromethyl-6-(4-trifluoromethyl-cyclohexyloxy)-naphthalen-2-ylmethyl)-3-azabicyclo[3.3.0]octane-7-carboxylic acid] yielded an IC50 of at most 250 nM. Compound `C[C@H]1CC[C@@H](Oc2ccc3cc(CN4C5CC(O)CC4CC(C(=O)O)C5)ccc3c2C(F)(F)F)CC1` (relative stereo) [Example 129, 9-((6-((cis-4-Methylcyclohexyl)oxy)-5-(trifluoromethyl)naphthalen-2-yl)methyl)-7-hydroxy-9-aza-bicyclo[3.3.1]nonane-3-carboxylic acid] has an IC50 of at most 500 nM. In the case of `CC[C@H](c1ccc2c(C(F)(F)F)c(O[C@H]3CC[C@@H](C(F)(F)F)CC3)ccc2c1)N1C2CCC1CC(C(=O)O)C2` (single isomer, unassigned) [Example 287], the IC50 is reported as at most 100 nM. Work on `C[C@H]1CC[C@@H](Oc2ccc3cc(C(=O)N4C5CCC4CC(C(=O)O)C5)ccc3c2C(F)(F)F)CC1` (stereo partly drawn) [Example 104, 8-(6-((cis-4-Methylcyclohexyl)oxy)-5-(trifluoromethyl)-2-naphthoyl)-8-azabicyclo[3.2.1]octane-3-carboxylic acid] yielded an IC50 of at most 100 nM. Compound `CC(c1ccc2c(Cl)c(O[C@H]3CC[C@@H](C(F)(F)F)CC3)ccc2c1)N1C2CCC1CC(C(=O)O)C2` (stereo partly drawn) [Example 234, 8-(1-(5-chloro-6-((cis-4-(trifluoromethyl)cyclohexyl)oxy)naphthalen-2-yl)ethyl)-8-azabicyclo[3.2.1]octane-3-carboxylic acid] has an IC50 of at most 100 nM. Work on `CC(c1ccc2c(C(F)(F)F)c(O[C@H]3CC[C@@H](C)CC3)ccc2c1)N1C2CCC1CC(C(=O)O)C2` (relative stereo) [Example 124, 8-(1-(6-((cis-4-Methylcyclohexyl)oxy)-5-(trifluoromethyl)naphthalen-2-yl)ethyl)-8-azabicyclo[3.2.1]octane-3-carboxylic acid] yielded an IC50 of at most 100 nM. `O=C(O)C1CC2CCCC(C1)N2C(=O)c1ccc2c(C(F)(F)F)c(O[C@H]3CC[C@@H](C(F)(F)F)CC3)ccc2c1` (stereo partly drawn) [Example 105, 9-(5-(trifluoromethyl)-6-((cis-4-(trifluoromethyl)cyclohexyl)oxy)-2-naphthoyl)-9-azabicyclo[3.3.1]nonane-3-carboxylic acid] was tested, and the IC50 was at most 100 nM. For `CCC(c1ccc2c(C(F)(F)F)c(O[C@H]3CC[C@@H](CC)CC3)ccc2c1)N1C2CCCC1CC(C(=O)O)C2` (relative stereo) [Example 179, 9-(1-(6-((cis-4-ethylcyclohexyl)oxy)-5-(trifluoromethyl)naphthalen-2-yl)propyl)-9-azabicyclo[3.3.1]nonane-3-carboxylic acid], the IC50 was at most 100 nM.
